# Data published in US20140148482A1, “METHOD FOR SCREENING ANTI-CANCER DRUGS AND METHOD OF CANCER TREATMENT” (National Taiwan University, priority 2012, published 2014).
# Where two headings read alike, the source gives them in different places.
# Tests used:
# [1] = tested on: c-jun mRNA in Huh-7 cells; assay: c-jun mRNA induction in Huh-7 cells, quantitative RT-PCR; assay type: cell-based, human; details: 10 μM, 24 hours, reference control group = 100%
# Method: (§1) Huh-7 cells, were added with 10 μM of the candidate compound and co-cultured under the same conditions for 24 hours. Sorafenib (10 μM) is used as a positive control group, and Huh-7 cells without compound treatment is used as the reference control group. mRNA levels were assessed through quantitative RT-PCR.
# (§2) RNA was extracted using a Trizol reagent (Invitrogen, San Diego, Calif.). cDNAs were synthesized from total RNA (1 μg) using a High Capacity cDNA Archive kit (Applied Biosystems, Foster City, Calif.) and quantified using the TaqMan-Universal or SYBR Green PCR Master Mix (Applied Biosystems, Foster City, Calif.) on an ABI PRISM 7900 Sequence Detection System (Applied Biosystems, Foster City, Calif.). The primers for the GADD45β, GADD45γ and c-jun genes were purchased from Applied Biosystems (ABI TaqMan assay ID: Hs00169587_ml, Hs00198672_ml and Hs00277190_s1). Primers for the hypoxanthine phosphoribosyltransferase (HPRT; sense 5′-[…]-3′ and antisense 5′-[…]-3′) gene were used as endogenous controls. Conditions for PCR were as follows: 50° C. for 2 minutes, 95° C. for 10 minutes, and then 40 cycles of 95° C. for 15 seconds (denaturation) and 60° C. for 1 minute (annealing/extension). The relative mRNA amount of the target/control genes was calculated using the ΔCt (threshold cycle) method: relative expression=2−ΔCt, where ΔCt=Ct (target gene)−Ct (control gene). The gene expression of the reference control group is as 100%.
# [2] = tested on: Hep3B cells; details: human, 72 h
# Method: (§7) Cell viability was assessed using an MTT (3-(4,5-dimethylthiazol-2-yl)-2,5-diphenyltetrazolium bromide) assay
# (§8) Cells were cultured in DMEM, containing 10% fetal bovine serum, penicillin (100 units/mL), streptomycin (100 μg/mL), L-glutamine (2 mmol/L), and sodium pyruvate (1 mmol/L) at 37° C. in a humidified incubator containing 5% CO2.
# (§9) Then the cells were collected and measured via an MTT assay.
# [3] = tested on: GADD45γ mRNA in Huh-7 cells; assay: GADD45γ mRNA induction in Huh-7 cells, quantitative RT-PCR; assay type: cell-based, human; details: for screening criterion: increased expression of GADD45 family: 300% or above of GADD45γ expression, 800% or above of GADD45β expression, or both, Table 1; for GADD45γ relative gene expression, Mean: Huh-7 cells, 10 μM, 24 hours, reference control group = 100%
# Method: as §1, §2
# (§3) SC-20 was then tested for GADD45β, GADD45γ and c-Jun mRNA in sorafenib-sensitive (Huh-7) and sorafenib-resistant (Huh-7R) cell lines. The cell culture and the steps of SC-20 treatment were as described above. The concentration of SC-20 and was 10 μm. Said mRNA was measured via qRT-PCR.
# as §2, with “Hs00277190_sl).” for “Hs00277190_s1).”, “gene).” for “gene). The gene expression of the reference control group is as 100%.”
# [4] = tested on: HCC cells (Huh-7, Hep3B, Huh-7R); assay: MTT cell viability of HCC cells (FIG. 2A); assay type: cell-based, human; details: 72 hours, especially in sorafenib-resistant cell lines (Hep3B and Huh-7R)
# Method: as §7
# (§10) The HCC cell line, Hep3B, was obtained from the American Type Culture Collection (ATCC), and the Huh-7 cell line was from the Health Science Research Resources Bank. Cells were cultured in DMEM, containing 10% fetal bovine serum, penicillin (100 units/mL), streptomycin (100 μg/mL), L-glutamine (2 mmol/L), and sodium pyruvate (1 mmol/L) at 37° C. in a humidified incubator containing 5% CO2. A sorafenib-resistant cell line, Huh-7R, was generated through continuous treatment of Huh-7 cells with sorafenib up to 10 μmol/L.Human umbilical vein endothelial cells (HUVEC) were procured from ScienCell Research Laboratories, CA. HUVECs were maintained in endothelial cell culture medium (ScienCell) to selectively promote growth at 37° C. in a 5% CO2 incubator.
# as §9
# [5] = tested on: GADD45β mRNA in Huh-7 cells; assay: GADD45β mRNA induction in Huh-7 cells, quantitative RT-PCR; assay type: cell-based, human; details: 24 hours; for GADD45β relative gene expression, Mean: Huh-7 cells, 10 μM, reference control group = 100%; for GADD45β mRNA expression induction: Huh-7, 10 uM, FIG. 4B
# Method: as §1, §2
# The effects of GADD45β mRNA induction by different concentrations of the candidate compounds were tested.
# [6] = tested on: Hep3B cells; assay: MTT cell viability, Hep3B; details: for cell viability of Hep3B (percentage of surviving cells): 72 hours of drug treatment, FIG. 2A
# Method: as §7, §8, §9
# [7] = tested on: GADD45γ mRNA in Huh-7R cells; assay: GADD45γ mRNA induction in sorafenib-resistant Huh-7R cells, qRT-PCR; assay type: cell-based, human; details: 10 μm, cut-off more than 300%, FIG. 3B
# Method: as §3
# as §2, with “Hs00277190_sl).” for “Hs00277190_s1).”, “gene).” for “gene). The gene expression of the reference control group is as 100%.”
# [8] = tested on: HUVEC (human umbilical venous endothelial cells); assay: MTT cell viability, HUVEC; assay type: cell-based; details: 72 hours, especially in 5 uM treatments, FIG. 2B
# Method: as §7, §10, §9
# [9] = tested on: Huh-7 cells; assay: Apoptosis induction (Sub-G1) by flow cytometry; assay type: cell-based, human; details: Huh-7, FIGS. 5B and 5C
# [10] = tested on: p-ERK in Hep3B cells; assay: phospho-ERK protein level by Western blotting, Hep3B; assay type: cell-based, human; details: 24 hours, FIG. 4A
# Method: (§4) Total-ERK, and phospho-ERK protein levels in HCC cells after sorafenib, SC-3 or SC-20 treatment at 24 hours. Whole-cell lysates after drug treatment were examined using Western blotting. Whole cell lysates of HCC cells after drug treatment were prepared and quantified as previously described (Ou D L et al. Cancer Res. 2010; 70:9309-18). SDS-PAGE and Western blot analysis were performed to measure protein expression. Signals were visualized using a UVP Imaging System (UVP, Upland, Calif.), or with X-ray film.
# [11] = tested on: Huh-7 xenograft; assay: Subcutaneous xenograft model of HCC, Huh-7; assay type: in vivo, mice; details: SC-20 20 mg/kg/d vs sorafenib 50 mg/kg/d
# Method: (§5) The protocol for the in vivo studies was approved by the Institutional Animal Care and Use Committee of College of Medicine, National Taiwan University. All the animal studies were performed according to the criteria outlined in the Guide for the Care and Use of Laboratory Animals prepared by National Academy of Sciences and published by NIH. Male BALB/c athymic (nu+/nu+) mice were inoculated subcutaneously with Huh-7 cells or Huh-7R cells (˜1×10^6). When the tumor volume reached ˜100 mm3 [volume (mm3)=(width)2×length×0.5], the mice were randomized into six treatment groups (n≧6 in each group): (a) vehicle control, (b) SC-20: 5 mg/kg/d, (c) SC-20: 10 mg/kg/d, (d) SC-20: 20 mg/kg/d, (e) SC-20: 50 mg/kg/d and (f) sorafenib: 50 mg/kg/d. Drug treatment was given daily via gavage. Tumor volume and body weight were recorded every 7 days. Tumor images from mice are from sacrifices at 25 days of treatment.
# (§6) An additional mice were used to establish xenografts to observe survival time. For these experiments, mice with subcutaneously tumors (100 mm^3) were treated as described above. Survival was monitored until the experiments were terminated due to heavy tumor burden over 2000 mm^3 (FIG. 6C). Tx start, treatment start time; Tx stop, treatment stop time.
# [12] = tested on: BNL-MEA allograft; assay: Orthotopic allograft model of HCC, BNL-MEA; assay type: in vivo, mice
# Method: The protocol for the in vivo studies was approved by the Institutional Animal Care and Use Committee of College of Medicine, National Taiwan University. All the animal studies were performed according to the criteria outlined in the Guide for the Care and Use of Laboratory Animals prepared by National Academy of Sciences and published by NIH. BALB/c mice were anaesthetized with isoflurane, and a small transverse incision was made in the left abdomen. BNL-MEA cells (˜1.5×10^5) suspended in 20 μl PBS were slowly injected with a 30-gauge needle into the left liver lobe, which was exposed through the incision. After injection, the incision was closed by suture with absorbable material. Five days after the surgery, the mice were randomized to three treatment groups (n≧4 in each group): (a) vehicle control, (b) SC-20 20 mg/kg/d and (c) sorafenib 10 mg/kg/d. Drug treatment was given daily via gavage. Mice sacrificed after twenty-five treatments were used as end-points of the therapeutic effect. In FIG. 7C, the arrows indicated the tumors.
# [13] = tested on: p-ERK in Huh-7 cells; assay: phospho-ERK protein level by Western blotting, Huh-7; assay type: cell-based, human; details: Huh-7, 24 hours, FIG. 4A
# Method: as §4
# [14] = tested on: Huh-7 cells; assay: MTT cell viability, Huh-7; assay type: cell-based, human; details: sorafenib-sensitive Huh-7, 72 hours, FIG. 5A
# Method: as §7
# The HCC cell line, Hep3B, was obtained from the American Type Culture Collection (ATCC), and the Huh-7 cell line was from the Health Science Research Resources Bank. Cells were cultured in DMEM, containing 10% fetal bovine serum, penicillin (100 units/mL), streptomycin (100 μg/mL), L-glutamine (2 mmol/L), and sodium pyruvate (1 mmol/L) at 37° C. in a humidified incubator containing 5% CO2.
# Huh-7 and Hep3B cells were treated with sorafenib, SC-3 or SC-20 for 72 hours, and the cell viability was assessed using an MTT assay.
# [15] = tested on: Huh-7R xenograft; assay: Subcutaneous xenograft model of HCC, Huh-7R; assay type: in vivo, mice; details: SC-20 20 mg/kg/d vs sorafenib 50 mg/kg/d
# Method: as §5, §6
SMILES,"c-Jun relative gene expression, Mean [1]",screening criterion: increased expression of GADD45 family [3],"GADD45γ relative gene expression, Mean [3]",growth inhibition of HCC cells compared with sorafenib [4],"GADD45β relative gene expression, Mean [5]",GADD45β mRNA expression induction [5],cell viability of Hep3B (percentage of surviving cells) [6],other results
N#Cc1ccc(Oc2ccc3cccc(NC(=O)Nc4ccc(Cl)c(C(F)(F)F)c4)c3c2)cc1 [SC-72],552.00%,satisfied the increased expression of GADD45 family,1522.00%,even more potent than sorafenib,1951.02%,–,–,cell viability of Hep3B (percentage of surviving cells) [2]: 15.65%
"CNC(=O)c1cc(Oc2ccc(NC(=O)Nc3ccc(Cl)c(C(F)(F)F)c3)cc2)ccn1 [sorafenib, Sorafenib, reference compound]",447.28%,–,1377.54%,–,2226.40%,significantly induced,68.57%,–
Cc1cc(Oc2ccnc3c(N)cccc23)ccc1NC(=O)c1cc(C(F)(F)F)cc(C(F)(F)F)c1 [SC-21],77.51%,–,96.65%,–,94.65%,–,–,–
CC(=O)Nc1cccc2c(Oc3ccc(NC(=O)c4cc(C(F)(F)F)cc(C(F)(F)F)c4)c(C)c3)ccnc12 [SC-22],183.54%,–,229.94%,–,340.21%,–,–,–
N#Cc1ccc(Oc2ccc(NC(=O)Nc3ccc(Cl)c(C(F)(F)F)c3)cc2)cc1 [SC-1],343.08%,satisfied the increased expression of GADD45 family,402.46%,–,1156.44%,–,–,–
Cc1cc(Oc2ccnc3c([N+](=O)[O-])cccc23)ccc1NC(=O)c1cc(C(F)(F)F)cc(C(F)(F)F)c1 [SC-20],515.47%,satisfied the increased expression of GADD45 family,364.16%,even more potent than sorafenib,1674.94%,significantly induced,36.78%,"GADD45γ mRNA induction [7]: can be induced; growth inhibition of HUVECs compared with sorafenib [8]: even more potent than sorafenib; apoptosis induction (Sub-G1) compared with sorafenib [9]: more potency than sorafenib in inducing apoptosis; reduction of p-ERK [10]: incapable of reducing p-ERK; GADD45γ mRNA induction ([3]; sorafenib-sensitive Huh-7, 10 μm, cut-off more than 300%, FIG. 3A): can be induced; mice survival time ([11]; FIG. 6C): significantly prolong mice survival times more than highly dose of sorafenib; tumor growth inhibition ([11]; daily gavage, FIG. 6A): significantly inhibited tumor growth more than highly dose of sorafenib; tumor growth in terms of tumor volume and weight ([12]; BNL-MEA allograft, SC-20 20 mg/kg/d, daily gavage, twenty-five treatments, FIGS. 7A and 7B): significantly inhibited tumor growth; tumor growth inhibition compared with sorafenib ([12]; orthotopic model, SC-20 20 mg/kg/d vs sorafenib 10 mg/kg/d, FIG. 7C): inhibited tumor growth significantly more than sorafenib; reduction of p-ERK [13]: incapable of reducing p-ERK; cell growth inhibition compared with sorafenib [14]: more potency than sorafenib; mice survival time ([15]; FIG. 6C): significantly prolong mice survival times more than highly dose of sorafenib; tumor growth inhibition ([15]; daily gavage, FIG. 6B): significantly inhibited tumor growth more than highly dose of sorafenib; cell growth inhibition compared with sorafenib ([6]; sorafenib-resistant Hep3B, 72 hours, FIG. 5A): more potency than sorafenib"
